What was measured:
[1] = system: PBMC from HLA-DQ2+ coeliac subjects; test: Interferon gamma ELISPOT, hordein 20mer first round library after barley challenge; type: cell-based, human; design: key to individual peptide showing maximal response in a single individual (asterisk): *: an asterisk indicates the eight individual peptides showing maximal response in a single individual; details: for number of subjects with > 70% maximal response / subjects with at least 40% maximal peptide response: 17 subjects
Experimental: Peptides were initially dissolved in aqueous acetonitrile (50%). Peptides in aqueous acetonitrile were transferred to sterile 96-well plates and diluted in sterile PBS with 1 mM calcium (250 mcg/ml) and then incubated with tTG (25 mcg/ml) (Sigma T5398) for 6 h 37° C. and then stored frozen (−20° C.) until use.
(§1) IFNγ ELISpot assays (Mabtech, Sweden) were performed in 96-well plates (MAIP S-45, Millipore) in which each well contained 25 mcl of peptide solution and 100 mcl of PBMC (2-8×10^5/well) in RPMI containing 10% heat inactivated human AB serum. After development and drying, IFNγ ELISpot plates were assessed using the MAIP automated ELISpot plate counter. Data was then analysed according to a novel algorithm (Expectation Maximization: EM) to define and quantify interferon-gamma responses to 9mer sequences contained within the peptide library (see FIG. 3 and below). 9mer peptides were then rationalised according to an algorithm that assumes redundancy in T-cell recognition, the “IterativeCluster” algorithm (see FIG. 4 and below), by allowing groups of amino acids with similar chemical properties at any one position in the 9mer, or for glutamate to replace glutamine at any position (assuming deamidation may have occurred).
Secalin and hordein 20mer first round peptide libraries were assessed 3 days after completing rye (bread, 100 g/d for 3 days) or barley (boiled, 100 g/d for 3 days) challenge (“day 6” PBMC interferon gamma ELISPOT responses). Although iterative analysis using 2nd and 3rd round peptide libraries to define epitopes has not yet been performed, the 20mers pre-treated with tTG found to induce “potent” responses shared substantial structural similarity to the bioactive peptides identified after wheat challenge. […] The dominant (>70% maximal response) 20mer after rye challenge was usually […] (SEQ ID NO: 1769) (8/14 subjects), or occasionally […] (SEQ ID NO: 1770) (4/14), […] (SEQ ID NO: 1771) (1/14), […] (SEQ ID NO: 1772) (1/14) and/or […] (SEQ ID NO: 1773) (1/14). Additional peptides noted for greater than 40% maximal response in at least 1 subject include:
Typically, the dominant peptides after barley challenge included one of six peptide motifs, or were one of eight other individual 20mers “dominant” in only one of 17 subjects after barley challenge. The six motifs identified:
The barley hordein peptides showing at least 40% maximal peptide response in at least one subject include the following, wherein an asterisk indicates the eight individual peptides showing maximal response in a single individual: […]

[2] = system: PBMC from HLA-DQ2+ coeliac subjects; test: Interferon gamma ELISPOT, second round wheat gliadin and glutenin 16mer library; type: cell-based, human; details: 16mers pre-treated with transglutaminase, 18 or 28 subjects; for subjects with >70% of maximal peptide-specific response: normalized to individual's maximal response
Excerpt: 12mer peptides were then identified in which each potential deamidation site could be in position 4, 6 or 7 in the 9mer located within HLA-DQ2 binding groove (HLA-DQ2 anchors at these positions show a preference for glutamate). Candidate 12mer core epitope sequences were then flanked with glycine followed by the N-terminal residue present in the parent gliadin polypeptide and at the C-terminal by the C-terminal residue present in the parent gliadin polypeptide followed by glycine (i.e. GXXXXXXXQXXXXXXG (SEQ ID NO: 1936)). […]
as §1
All 2nd round 16mer peptides were assessed in at least 18 subjects. […] All 16mers identified for the second round Oxford library also fulfilled the selection criteria for the Melbourne second round library.
The second round peptide library data was analysed according to the “dominance” of peptide responses in the interferon gamma ELISPOT in individual subjects i.e. the percent response of an individual's PBMC to a specific peptide normalized against that individual's maximal peptide-induced response. Sequences of peptides that stimulated at least 40% of the maximal peptide-specific response in at least one subject are shown in Table 1 below. The dataset supports the consistency and “dominance” of peptides conforming to the sequences identified using the first round 20mer peptide library using the Expectation Maximization (EM) algorithm described above.

Substance | individual peptide showing maximal response in a single individual (asterisk) [1] | number of subjects with > 70% maximal response [1] | subjects with at least 40% maximal peptide response [1] | subjects with 10-40% of maximal peptide-specific response [2] | subjects with 40-70% of maximal peptide-specific response [2] | subjects with <10% of maximal peptide-specific response [2] | subjects with >70% of maximal peptide-specific response [2]
PQPYPQQPQPFPQQPPFCQQ (Description of Artificial Sequence: Synthetic gluten peptide) [barley hordein 20mer] | * | 1 | 1/17 |  |  |  | 
PQQPQQPFPQPQQPFSWQPQ (Description of Artificial Sequence: Synthetic gluten peptide) [barley hordein 20mer] | * | 2 | 6/17 |  |  |  | 
QKYPEQPQQPFPWQQPTIQL (Description of Artificial Sequence: Synthetic gluten peptide) [barley hordein 20mer] |  | 1 | 1/17 |  |  |  | 
PFPQPQQPFPWQPQQPFPQP (Description of Artificial Sequence: Synthetic gluten peptide) [barley hordein 20mer] |  | 0 | 6/17 |  |  |  | 
QQPFPLQPQQPFPQPQPFPQ (Description of Artificial Sequence: Synthetic gluten peptide) [barley hordein 20mer] |  | 0 | 1/17 |  |  |  | 
G-LQPFPQPQLSYSQP-G: wheat 16mer, second round library (GLQPFPQPQLSYSQPG; Description of Artificial Sequence: Synthetic gluten peptide) |  |  |  | 2/28 | 1/28 | 25/28 | Nil
GQGQSGYYPTSPQQSG (QQGYYPTSPQQSGQGQ; Description of Artificial Sequence: Synthetic gluten peptide) [wheat 16mer, second round library] |  |  |  | 2/18 | Nil | 15/18 | 1/18
G-FPQPQQPQQPFPQQ-G: wheat 16mer, second round library (GFPQPQQPQQSFPQQG; Description of Artificial Sequence: Synthetic gluten peptide) |  |  |  | 3/28 | 1/28 | 25/28 | Nil
LQQQCSPVAMPQRLAR [wheat 16mer, second round library] |  |  |  | 11/28 | 1/28 | 15/28 | 1/28
G-IQVDPSGQVQWPQQ-G: wheat 16mer, second round library (GMQADPSGQVQWPQQG; Description of Artificial Sequence: Synthetic gluten peptide) |  |  |  | Nil | Nil | 17/18 | 1/18
G-QPFPWQPQQPFPQQ-G: wheat 16mer, second round library (GQPTPIQPQQPFPQQG; Description of Artificial Sequence: Synthetic gluten peptide) |  |  |  | 8/28 | 2/28 | 18/28 | Nil
QQGYYPTSPQQSGQGQ (QGQQGYYPTSPQQPPQ; Description of Artificial Sequence: Synthetic gluten peptide) [wheat 16mer, second round library] |  |  |  | Nil | 1/18 | 17/18 | Nil
G-QQPFPQPQQPFPWQ-G: wheat 16mer, second round library |  |  |  | 5/28 | 8/28 | 6/28 | 9/28
G-FFPQPQQQFPQPQQ-G: wheat 16mer, second round library (GFPQQPQQQFPQPQQG; Description of Artificial Sequence: Synthetic gluten peptide) |  |  |  | 10/28 | 1/28 | 17/28 | Nil
G-QLPYPQPQLPYPQP-G: wheat 16mer, second round library (GQLPYPQPQLPYPQPG; Description of Artificial Sequence: Synthetic gluten peptide) |  |  |  | 3/28 | 4/28 | 3/28 | 18/28
G-MQVDPSGQVQWPQQ-G: wheat 16mer, second round library (GIQVDPSGQVQWPQQG; Description of Artificial Sequence: Synthetic gluten peptide) |  |  |  | Nil | Nil | 17/18 | 1/18
G-QVSFQQPQQQYPSP-G: wheat 16mer, second round library |  |  |  | 4/28 | 2/28 | 22/28 | Nil
G-QQPFPQPQQPFSQQ-G: wheat 16mer, second round library |  |  |  | 8/28 | 7/28 | 9/28 | 4/28
QQGYYPISPQQLGQGQ [wheat 16mer, second round library] |  |  |  | Nil | 1/18 | Nil | Nil
